Measured values published in patent publication US20230040909A1 (priority 2019, published 2023).
Converted amounts (≈) assume the structure as drawn. Read-outs that look alike come from different tables or passages of the source.

Tests used:
Mycobacterium abscessus = test: M. ab_ATCC MIC MHII; type: cell-based; conditions: Mycobacteroides abscessus; read-out: M. ab_ATCC: MIC MHII: MIC
Description: The procedure described in Franz 2017 was used to generate the data shown in column 5 of Table 4.

M. tb H37Rv [1] = test: microbe, parasite or virus in culture; type: cell-based, Mycobacterium tuberculosis; conditions: Mycobacterium tuberculosis, H37RV; for MIC: read-out: M. tb H37Rv: MIC-MABA
VERO cell cytotoxicity = type: cell-based; conditions: African green monkey, VERO cells
Description: The procedures described in Falzari 2005 were used to generate the data shown in column 2 of Table 4.

M. tb H37Rv [2] = test: microbe, parasite or virus in culture; type: cell-based; conditions: Mycobacterium tuberculosis; for MIC: read-out: M. tb H37Rv: MIC-LORA; for inhibition at 20 µg/mL: at 20 μg/mL, read-out: M. tb H37Rv: MIC-LORA: Comment (% inhibition)

Compound	MIC (Mycobacterium abscessus) [µg/mL]	MIC (M. tb H37Rv [1]) [µg/mL]	IC50 (VERO cell cytotoxicity) [µg/mL]	MIC (M. tb H37Rv [2]) [µg/mL]	inhibition at 20 µg/mL (M. tb H37Rv [2]) [%]	inhibition at 1 µg/mL (M. tb H37Rv [1]; at 1 ug/mL, read-out: M. tb H37Rv: MABA % inhibition) [%]
C[Si]1(C)CCCC(NC(=O)c2cc3c(F)cc(F)cc3[nH]2)CC1 (stereo not drawn) [MPL-286, N-(1,1-dimethylsilepan-4-yl)-4,6-difluoro-1H-indole-2-carboxamide]	> 64	0.0044 (≈ 0.0131 µM)	> 20	7.9 (≈ 23.5 µM)	–	–
Cc1cc(C)c2cc(C(=O)NC3CC[Si](C)(C)CC3)[nH]c2c1 [MPL-317, N-(1,1-dimethylsilinan-4-yl)-4,6-dimethyl-1H-indole-2-carboxamide]	0.062 (≈ 0.197 µM)	0.031 (≈ 0.0986 µM)	> 20	> 20	–	–
O=C(NC1CC[Si]2(CCCCC2)CC1)c1cc2c(Cl)cc(Cl)cc2[nH]1 [MPL-257, 4,6-dichloro-N-(6-silaspiro[5.5]undecan-3-yl)-1H-indole-2-carboxamide]	> 64	0.0045 (≈ 0.0114 µM)	–	> 20	68	–
Cc1cc(F)c2cc(C(=O)NC3CC[Si](C)(C)CC3)[nH]c2c1 [MPL-470, N-(1,1-dimethylsilinan-4-yl)-4-fluoro-6-methyl-1H-indole-2-carboxamide]	> 64	0.007 (≈ 0.022 µM)	> 20	> 20	–	–
Cc1cc(Br)c2cc(C(=O)NC3CC[Si](C)(C)CC3)[nH]c2c1 [MPL-337, 4-bromo-N-(1,1-dimethylsilinan-4-yl)-6-methyl-1H-indole-2-carboxamide]	> 64	0.007 (≈ 0.0185 µM)	> 20	> 20	–	–
O=C(NC1CC[Si]2(CCCCC2)CC1)c1cc2c(F)cc(F)cc2[nH]1 [MPL-256, 4,6-difluoro-N-(6-silaspiro[5.5]undecan-3-yl)-1H-indole-2-carboxamide]	> 64	0.0041 (≈ 0.0113 µM)	> 20	3.4 (≈ 9.38 µM)	–	–
CC(C)Oc1cc(F)cc2[nH]c(C(=O)NC3CC[Si](C)(C)CC3)cc12 [MPL-383, N-(1,1-dimethylsilinan-4-yl)-6-fluoro-4-isopropoxy-1H-indole-2-carboxamide]	> 64	0.0148 (≈ 0.0408 µM)	> 20	> 20	–	–
Cc1cc(Br)cc2[nH]c(C(=O)NC3CC[Si](C)(C)CC3)cc12 [MPL-338, 6-bromo-N-(1,1-dimethylsilinan-4-yl)-4-methyl-1H-indole-2-carboxamide]	> 64	< 0.004	> 20	> 20	–	–
Cc1cc(C#N)c2cc(C(=O)NC3CC[Si](C)(C)CC3)[nH]c2c1 [MPL-344, 4-cyano-N-(1,1-dimethylsilinan-4-yl)-6-methyl-1H-indole-2-carboxamide]	> 64	0.008 (≈ 0.0246 µM)	> 20	> 20	–	–
Cc1cc(C)c2cc(C(=O)NC3CC[Si](C)(C)C3)[nH]c2c1 (racemic) [MPL-296, N-(1,1-dimethylsilolan-3-yl)-4,6-dimethyl-1H-indole-2-carboxamide]	0.062 (≈ 0.206 µM)	0.0151 (≈ 0.0503 µM)	13.8 (≈ 45.9 µM)	2.3 (≈ 7.65 µM)	–	–
COCCOc1cc(F)cc2[nH]c(C(=O)NC3CC[Si](C)(C)CC3)cc12 [MPL-384, N-(1,1-dimethylsilinan-4-yl)-6-fluoro-4-(2-methoxyethoxy)-1H-indole-2-carboxamide]	> 64	0.0308 (≈ 0.0814 µM)	> 20	9.36 (≈ 24.7 µM)	–	–
C[Si]1(C)CCC(NC(=O)c2cc3c(F)cc(F)cc3[nH]2)C1 (stereo not drawn) [MPL-400, N-(1,1-dimethylsilolan-3-yl)-4,6-difluoro-1H-indole-2-carboxamide]	> 64	0.0113 (≈ 0.0366 µM)	> 20	> 20	–	–
C[Si]1(C)CCCCC(NC(=O)c2cc3c(C(F)(F)F)cc(C(F)(F)F)cc3[nH]2)CC1 (stereo not drawn) [MPL-325, N-(1,1-dimethylsilocan-4-yl)-4,6-bis(trifluoromethyl)-1H-indole-2-carboxamide]	> 64	0.0305 (≈ 0.0677 µM)	16.4 (≈ 36.4 µM)	> 20	–	–
C[Si]1(C)CCCC(NC(=O)c2cc3c(C(F)(F)F)cc(C(F)(F)F)cc3[nH]2)CCC1 [MPL-326, N-(1,1-dimethylsilocan-5-yl)-4,6-bis(trifluoromethyl)-1H-indole-2-carboxamide]	> 64	0.0305 (≈ 0.0677 µM)	15.4 (≈ 34.2 µM)	> 20	–	–
Cc1cc(C)c2cc(C(=O)NC3CCC[Si](C)(C)CC3)[nH]c2c1 (stereo not drawn) [MPL-262, N-(1,1-dimethylsilepan-4-yl)-4,6-dimethyl-1H-indole-2-carboxamide]	0.5 (≈ 1.52 µM)	0.009 (≈ 0.0274 µM)	–	16 (≈ 48.7 µM)	–	–
C[Si]1(C)CCCC(NC(=O)c2cc3c(C(F)(F)F)cc(C(F)(F)F)cc3[nH]2)CC1 (stereo not drawn) [MPL-324, N-(1,1-dimethylsilepan-4-yl)-4,6-bis(trifluoromethyl)-1H-indole-2-carboxamide]	> 64	0.0154 (≈ 0.0353 µM)	> 20	> 20	–	–
Cc1c(C(=O)NC2CC[Si](C)(C)CC2)[nH]c2cc(F)cc(F)c12 [MPL-335, N-(1,1-dimethylsilinan-4-yl)-4,6-difluoro-3-methyl-1H-indole-2-carboxamide]	> 64	< 0.004	> 20	> 20	–	–
C[Si]1(C)CC[C@@H](NC(=O)c2cc3c(Cl)cc(Cl)cc3[nH]2)C1 (single isomer, unassigned) [MPL-399A]	0.125 (≈ 0.366 µM)	0.03 (≈ 0.0879 µM)	> 64	–	–	–
Cc1cc(C)c2cc(C(=O)NC3CC[Si]4(CCCCC4)CC3)[nH]c2c1 [MPL-265, 4,6-dimethyl-N-(6-silaspiro[5.5]undecan-3-yl)-1H-indole-2-carboxamide]	> 64	0.014 (≈ 0.0395 µM)	> 20	> 20	84	–
O=C(NC1CC[Si]2(CCCC2)CC1)c1cc2c(F)cc(F)cc2[nH]1 [MPL-251, 4,6-difluoro-N-(5-silaspiro[4.5]decan-8-yl)-1H-indole-2-carboxamide]	> 64	0.0043 (≈ 0.0123 µM)	> 20	7 (≈ 20.1 µM)	–	–
C[Si]1(C)CCC(NC(=O)c2cc3c(C(F)(F)F)cc(C(F)(F)F)cc3[nH]2)C1 (stereo not drawn) [MPL-327, N-(1,1-dimethylsilolan-3-yl)-4,6-bis(trifluoromethyl)-1H-indole-2-carboxamide]	> 64	0.00752 (≈ 0.0184 µM)	> 20	> 20	–	–
C[Si]1(C)CCC(NC(=O)c2cc3c(Cl)cc(Cl)cc3[nH]2)C1 (racemic) [MPL-399, 4,6-dichloro-N-(1,1-dimethylsilolan-3-yl)-1H-indole-2-carboxamide]	0.062 (≈ 0.182 µM)	< 0.004	> 20	7.81 (≈ 22.9 µM)	–	–
C[Si]1(C)CC[C@H](NC(=O)c2cc3c(Cl)cc(Cl)cc3[nH]2)C1 (single isomer, unassigned) [MPL-399B]	0.125 (≈ 0.366 µM)	0.003 (≈ 0.00879 µM)	52 (≈ 152 µM)	–	–	–
O=C(NC1CC[Si]2(CCCC2)CC1)c1cc2c(Cl)cc(Cl)cc2[nH]1 [MPL-252, 4,6-dichloro-N-(5-silaspiro[4.5]decan-8-yl)-1H-indole-2-carboxamide]	64 (≈ 168 µM)	0.014 (≈ 0.0367 µM)	> 20	–	–	–
CC(CC[Si](C)(C)C)NC(=O)c1cc2c(Cl)cc(Cl)cc2[nH]1 (stereo not drawn) [MPL-360, 4,6-dichloro-N-(1-methyl-3-trimethylsilyl-propyl)-1H-indole-2-carboxamide]	–	–	15.4 (≈ 43.1 µM)	> 20	–	87
